Common to all, as to type: biochemical
Experiment [1] deals with T1, ENPP1 (Homo sapiens, UniProt P22413).
T1 sequence (P22413 1-925): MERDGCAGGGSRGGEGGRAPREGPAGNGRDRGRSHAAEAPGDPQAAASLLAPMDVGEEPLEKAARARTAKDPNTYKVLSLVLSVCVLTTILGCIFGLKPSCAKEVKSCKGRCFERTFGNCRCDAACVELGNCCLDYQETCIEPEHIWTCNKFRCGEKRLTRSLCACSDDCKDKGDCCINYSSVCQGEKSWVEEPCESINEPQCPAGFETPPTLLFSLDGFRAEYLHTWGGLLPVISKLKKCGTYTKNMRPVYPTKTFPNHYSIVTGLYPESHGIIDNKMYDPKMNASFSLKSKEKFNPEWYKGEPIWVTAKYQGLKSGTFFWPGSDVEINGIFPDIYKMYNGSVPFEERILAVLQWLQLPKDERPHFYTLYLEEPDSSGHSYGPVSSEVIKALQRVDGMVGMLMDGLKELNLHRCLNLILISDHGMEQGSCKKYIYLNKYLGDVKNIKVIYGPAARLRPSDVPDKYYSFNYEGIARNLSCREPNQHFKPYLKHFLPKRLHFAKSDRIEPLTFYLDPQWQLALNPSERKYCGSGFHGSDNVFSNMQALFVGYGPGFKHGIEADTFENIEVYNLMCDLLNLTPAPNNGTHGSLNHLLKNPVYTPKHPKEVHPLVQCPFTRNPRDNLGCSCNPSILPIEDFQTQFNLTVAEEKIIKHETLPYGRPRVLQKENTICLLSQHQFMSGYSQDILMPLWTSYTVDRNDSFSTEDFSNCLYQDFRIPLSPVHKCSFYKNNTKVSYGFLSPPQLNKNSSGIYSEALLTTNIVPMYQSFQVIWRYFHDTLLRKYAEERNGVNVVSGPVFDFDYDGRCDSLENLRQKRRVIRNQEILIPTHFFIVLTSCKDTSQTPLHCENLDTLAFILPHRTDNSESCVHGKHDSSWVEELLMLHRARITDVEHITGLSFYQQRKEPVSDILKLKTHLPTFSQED
Description: Substrate selectivity ratio, inhibition of cGAMP hydrolysis versus ATP hydrolysis. Conditions: ratio Ki AMP-pNP / Ki cGAMP. The method, then:
The selectivity ratios for inhibition of cGAMP hydrolysis versus ATP hydrolysis were then calculated as follows: […]

In experiment [2] the target is T1, ENPP1. Briefly: ENPP1 enzyme assay with AMP-pNP substrate (hydrolysis of ATP analog). The essentials:
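Human recombinant ENPP1 (60 ng/well) with 300 µM AMP-pNP in 50 mM Tris-HCl pH 8.5, 250 mM NaCl, 0.5 mM CaCl2, 1 µM ZnCl2, 0.1% DMSO, 20 min at 37 °C.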

Experiment [3] addresses T1, ENPP1. Description: Indirect quantitation of 2',3'-cGAMP hydrolysis (AMP-Glo Assay kit).
[4] abbreviates: AMP-pNP substrate (ATP analog), Ki from IC50 by Cheng-Prusoff, read-out: ENPP1 Inhibition _AMP-pNP: Ki.
Where [5] appears, read: cGAMP substrate, Ki from IC50 by Cheng-Prusoff, read-out: ENPP1 Inhibition -cGAMP: Ki.

A word on the Ki: it is the equilibrium dissociation constant of an inhibitor or competing ligand from its target. For the compound `COc1ccc2c(N3CCC4(CCNC4)CC3)c(C#N)cnc2c1` [Example 275, 7-methoxy-4-(2,8-diazaspiro[4.5]decan-8-yl)quinoline-3-carbonitrile], the “Substrate Selectivity: Ki_AMP-pNP/Ki_cGAMP” value (shortened to “Substrate Selectivity”) in experiment [1] is above 7.7. The Ki in experiment [2] (setting [4]) was above 1 µM; in experiment [3] (setting [5]), 0.1 to 1 µM.

`COc1ccc2ncnc(N3CCC(CCNS(N)(=O)=O)CC3)c2c1` [Example 199, N-(2-(1-(6-methoxyquinazolin-4-yl)piperidin-4-yl)ethyl)sulfamide]: the “Substrate Selectivity” value in experiment [1] stood at 33.6. The values for the Ki in experiment [2] (setting [4]) and in experiment [3] (setting [5]) were 0.1 to 1 µM and below 0.1 µM, respectively.

On to `COc1ccc2c(N3CCc4cc(NS(N)(=O)=O)ccc43)ccnc2c1F` [Example 376, N-(1-(8-fluoro-7-methoxyquinolin-4-yl)indolin-5-yl)sulfamide], for which, in experiment [1], the “Substrate Selectivity” value is above 77. Further, the Ki is above 1 µM in experiment [2] (setting [4]) and 0.1 to 1 µM in experiment [3] (setting [5]).

For the compound `COc1cc2nccc(Oc3ccc(S(N)(=O)=O)cc3)c2cc1OC` [Example 303, 4-((6,7-dimethoxyquinolin-4-yl)oxy)benzenesulfonamide], the “Substrate Selectivity” value in experiment [1] was 41.6. For the same compound, the Ki was 0.1 to 1 µM in experiment [2] (setting [4]) and below 0.1 µM in experiment [3] (setting [5]).

`COc1ccc2c(Oc3ccc(NS(N)(=O)=O)cc3)cc(C)nc2c1` [Example 397, N-(4-((7-methoxy-2-methylquinolin-4-yl)oxy)phenyl)sulfamide]: the “Substrate Selectivity” value in experiment [1] is on record as above 13. Further, the inhibitory constant (Ki) in experiment [2] (setting [4]) is 0.1 to 1 µM; in experiment [3] (setting [5]), below 0.1 µM.

For `COc1ccc2c(-c3ccc(CN)cc3)c(C#N)cnc2c1` [Example 277, 4-(4-(aminomethyl)phenyl)-7-methoxyquinoline-3-carbonitrile], the “Substrate Selectivity” value in experiment [1] was above 90.4. Moreover, the Ki was above 1 µM in experiment [2] (setting [4]) and 0.1 to 1 µM in experiment [3] (setting [5]).

Regarding `COc1ccc2nccc(Oc3ccc(S(N)(=O)=O)cc3)c2c1` [Example 355, 4-((6-methoxyquinolin-4-yl)oxy)benzenesulfonamide], in experiment [1], the “Substrate Selectivity” value is reported as above 53. For the same compound, the inhibition constant Ki in experiment [2] (setting [4]) was above 1 µM; in experiment [3] (setting [5]), below 0.1 µM.

For `COc1cc2c(N3CCC(CCNS(N)(=O)=O)CC3)ncnc2cc1Cl` [Example 185, N-(2-(1-(7-chloro-6-methoxyquinazolin-4-yl)piperidin-4-yl)ethyl)sulfamide], the “Substrate Selectivity” value in experiment [1] is above 8.00. Further, the Ki in experiment [2] (setting [4]) is above 1 µM; in experiment [3] (setting [5]), 0.1 to 1 µM.

With `COc1cc2ncnc(N3CCC(CCNS(N)(=O)=O)CC3)c2cc1OC(C)C` [Example 205, N-(2-(1-(6-isopropoxy-7-methoxyquinazolin-4-yl)piperidin-4-yl)ethyl)sulfamide], in experiment [1], the “Substrate Selectivity” value is on record as above 14.4. In addition, the figures for the Ki in experiment [2] (setting [4]) and in experiment [3] (setting [5]) were above 1 µM and 0.1 to 1 µM, respectively.

As to `COc1ccc2c(Oc3cnc(NS(N)(=O)=O)nc3)ccnc2c1` [Example 224, N-(5-((7-methoxyquinolin-4-yl)oxy)pyrimidin-2-yl)sulfamide], the “Substrate Selectivity” value in experiment [1] is on record as above 2.40. The Ki in experiment [2] (setting [4]) and in experiment [3] (setting [5]) was 0.1 to 1 µM in each case.

Turning to `COc1cc2nccc(Oc3ccc(NS(=O)(=O)C4CCC4)cc3)c2cc1OC` [Example 261, N-(4-((6,7-dimethoxyquinolin-4-yl)oxy)phenyl)cyclobutanesulfonamide], in experiment [1], the “Substrate Selectivity” value is on record as above 12.9. Besides, the Ki in experiment [2] (setting [4]) was above 1 µM; in experiment [3] (setting [5]) it was 0.1 to 1 µM.

With `COc1ccc2c(N3CCc4cc(NS(N)(=O)=O)ccc43)ncnc2c1` [Example 392, N-(1-(7-methoxyquinazolin-4-yl)indolin-5-yl)sulfamide], in experiment [1], the “Substrate Selectivity” value is given as above 133. Besides, the Ki is above 1 µM in experiment [2] (setting [4]) and below 0.1 µM in experiment [3] (setting [5]).

With `COc1cc2nccc(Oc3ccc(NS(N)(=O)=O)cc3)c2cn1` [Example 330, N-(4-((7-methoxy-1,6-naphthyridin-4-yl)oxy)phenyl)sulfamide], the “Substrate Selectivity” value in experiment [1] is recorded as 35. Also, the Ki was 0.1 to 1 µM in experiment [2] (setting [4]) and below 0.1 µM in experiment [3] (setting [5]).

`COc1ccc2c(NCc3ccc(NS(N)(=O)=O)cc3)ccnc2n1` [Example 417, N-(4-(((7-methoxy-1,8-naphthyridin-4-yl)amino)methyl)phenyl)sulfamide]: the “Substrate Selectivity” value in experiment [1] came out at 30. The Ki in experiment [2] (setting [4]) and in experiment [3] (setting [5]) was below 0.1 µM throughout.

In the case of `COc1ccc2c(N3CCC4(CC3)CCN(S(N)(=O)=O)C4)ncnc2c1` [Example 65, 8-(7-methoxyquinazolin-4-yl)-2,8-diazaspiro [4.5] decane-2-sulfonamide], the “Substrate Selectivity” value in experiment [1] is on record as 38.7. For the same compound, the Ki in experiment [2] (setting [4]) and in experiment [3] (setting [5]) was below 0.1 µM each time.

In the case of `COc1ccc2c(NCc3ccc(S(N)(=O)=O)cc3)ccnc2c1` [Example 293, 4-(((7-methoxyquinolin-4-yl)amino)methyl)benzenesulfonamide], the “Substrate Selectivity” value in experiment [1] was found to be 17.9. The Ki in experiment [2] (setting [4]) and in experiment [3] (setting [5]) was below 0.1 µM throughout.

With `COc1ccc2c(NC(C)c3ccc(NS(N)(=O)=O)cc3)ncnc2c1` (stereo not drawn) [Example 279, N-(4-(1-((7-methoxyquinazolin-4-yl)amino)ethyl)phenyl)sulfamide], the “Substrate Selectivity” value in experiment [1] was found to be 24.2. In addition, the inhibition constant (Ki) is 0.1 to 1 µM in experiment [2] (setting [4]) and below 0.1 µM in experiment [3] (setting [5]).

As for `COc1ccc2ncnc(NCc3ccc(S(N)(=O)=O)cc3)c2c1` [Example 306, 4-(((6-methoxyquinazolin-4-yl)amino)methyl)benzenesulfonamide], the “Substrate Selectivity” value in experiment [1] came to 22.4. The Ki was 0.1 to 1 µM in experiment [2] (setting [4]) and below 0.1 µM in experiment [3] (setting [5]).

For the compound `COc1ccc2c(Oc3ccc(N)cc3)ccnc2c1` [Example 342, 4-((7-methoxyquinolin-4-yl)oxy)aniline], the “Substrate Selectivity” value in experiment [1] was above 64.9. The Ki in experiment [2] (setting [4]) was above 1 µM; in experiment [3] (setting [5]) it was 0.1 to 1 µM.

As to `COc1cc2nccc(Oc3ccc(NS(=O)(=O)c4ccccc4)cc3)c2cc1OC` [Example 86, N-(4-((6,7-dimethoxyquinolin-4-yl)oxy)phenyl)benzenesulfonamide], the “Substrate Selectivity” value in experiment [1] is above 43.2. For the same compound, the inhibition constant (Ki) in experiment [2] (setting [4]) was 0.1 to 1 µM; in experiment [3] (setting [5]), below 0.1 µM.

`COc1ccc2c(Oc3ccc(NS(N)(=O)=O)cc3C(F)(F)F)ccnc2c1` [Example 317, N-(4-((7-methoxyquinolin-4-yl)oxy)-3-(trifluoromethyl)phenyl)sulfamide]: the “Substrate Selectivity” value in experiment [1] is on record as above 49.9. Also, the Ki is above 1 µM in experiment [2] (setting [4]) and 0.1 to 1 µM in experiment [3] (setting [5]).

As to `COc1cc2ncc(F)c(-c3ccc(CNS(N)(=O)=O)cc3)c2cc1OC` [Example 67, N-(4-(3-fluoro-6,7-dimethoxyquinolin-4-yl)benzyl)sulfamide], the “Substrate Selectivity” value in experiment [1] is listed as 67.2. Also, the inhibitory constant (Ki) in experiment [2] (setting [4]) and in experiment [3] (setting [5]) was below 0.1 µM in each case.

Turning to `COc1ccc2c(-c3ccc(CN(C4CC4)S(N)(=O)=O)cc3)ccnc2c1` [Example 289, N-cyclopropyl-N-(4-(7-methoxyquinolin-4-yl)benzyl)sulfamide], the “Substrate Selectivity” value in experiment [1] is above 626. The Ki in experiment [2] (setting [4]) was above 1 µM; in experiment [3] (setting [5]), below 0.1 µM.

Consider `COc1ccc2ncnc(NC(C)c3ccc(NS(N)(=O)=O)cc3)c2c1` (stereo not drawn) [Example 299, N-(4-(1-((6-methoxyquinazolin-4-yl)amino)ethyl)phenyl)sulfamide], for which the “Substrate Selectivity” value in experiment [1] was above 45.9. Besides, the Ki in experiment [2] (setting [4]) is above 1 µM; in experiment [3] (setting [5]) it was below 0.1 µM.

As to `COc1cc2ncnc(N3CCC(CCNS(=O)(=O)C(F)F)CC3)c2cc1OC` [Example 208, N-(2-(1-(6,7-dimethoxyquinazolin-4-yl)piperidin-4-yl)ethyl)-1,1-difluoromethanesulfonamide], in experiment [1], the “Substrate Selectivity” value is reported as above 16.4. Further, the values for the Ki in experiment [2] (setting [4]) and in experiment [3] (setting [5]) were above 1 µM and below 0.1 µM, respectively.

In the case of `COc1cc2ncnc(N3CCN(C(=O)CNS(N)(=O)=O)CC3)c2cc1OC` [Example 52, N-(2-(4-(6,7-dimethoxyquinazolin-4-yl)piperazin-1-yl)-2-oxoethyl)sulfamide], in experiment [1], the “Substrate Selectivity” value is 58.1. The Ki in experiment [2] is 0.1 to 1 µM; in experiment [3], below 0.1 µM.

(Values after patent US20230183239A1, “ECTONUCLEOTIDE PYROPHOSPHATASE-PHOSPHODIESTERASE 1 (ENPP-1) INHIBITORS AND USES THEREOF” (AbbVie Inc., priority 2017, published 2023).)
